Data: PubChem BioAssay AID256 (DTP/NCI, 2004)
Where “and” joins values, the source holds several entries; their conditions need not be identical. Identical values can stand only once. Toxic doses and inconclusive results are not listed. The calls were made as follows: active = survival T/C of 150% or more; inactive = T/C below 125% in these data.

Test system: CD2F1 mice, L1210 leukemia ip, survival T/C
Assay: NCI In Vivo Anticancer Drug Screen. Data for tumor model L1210 Leukemia (intraperitoneal) in CD2F1 (CDF1) mice
Conditions: endpoint: mean survival time, higher = longer survival
Method in brief: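 Activity against a transplanted murine tumor was judged by comparing the compound group with a vehicle group. The outcome in the treated animals was divided by that in the controls.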

[1] = dose: 12.5 mg/kg/injection, schedule: Q01DX009 (ip), vehicle: saline
[2] = dose: 25.0 mg/kg/injection, schedule: Q01DX009 (ip), vehicle: saline
[3] = dose: 12.5 mg/kg/injection, schedule: Q01DX009 (ip), vehicle: saline with Tween-80
[4] = dose: 25.0 mg/kg/injection, schedule: Q01DX009 (ip), vehicle: saline with Tween-80
[5] = dose: 100.0 mg/kg/injection, schedule: Q01DX009 (ip), vehicle: saline with Tween-80
[6] = dose: 100.0 mg/kg/injection, schedule: Q04DX003 (ip), vehicle: saline with Tween-80
[7] = dose: 200.0 mg/kg/injection, schedule: Q01DX009 (ip), vehicle: saline with Tween-80
[8] = dose: 200.0 mg/kg/injection, schedule: Q04DX003 (ip), vehicle: saline with Tween-80
[9] = dose: 400.0 mg/kg/injection, schedule: Q01DX009 (ip), vehicle: saline with Tween-80
[10] = dose: 400.0 mg/kg/injection, schedule: Q04DX003 (ip), vehicle: saline with Tween-80
[11] = dose: 100.0 mg/kg/injection, schedule: Q01DX001 (ip), vehicle: saline with Tween-80
[12] = dose: 400.0 mg/kg/injection, schedule: Q01DX001 (ip), vehicle: saline with Tween-80
[13] = dose: 6.25 mg/kg/injection, schedule: Q01DX009 (ip), vehicle: saline
[14] = dose: 100.0 mg/kg/injection, schedule: Q01DX001 (ip), vehicle: saline
[15] = dose: 100.0 mg/kg/injection, schedule: Q04DX002 (ip), vehicle: saline with Tween-80
[16] = dose: 200.0 mg/kg/injection, schedule: Q01DX001 (ip), vehicle: saline
[17] = dose: 200.0 mg/kg/injection, schedule: Q04DX002 (ip), vehicle: saline with Tween-80
[18] = dose: 400.0 mg/kg/injection, schedule: Q04DX002 (ip), vehicle: saline with Tween-80

Measured: T/C

Cc1nnc2ncccn12
inactive: [1] 96 % of control and 102 % of control | [2] 96 % of control and 97 % of control | dose: 50.0 mg/kg/injection, schedule: Q01DX009 (ip), vehicle: saline 92 % of control and 96 % of control | dose: 100.0 mg/kg/injection, schedule: Q01DX009 (ip), vehicle: saline 95 % of control and 97 % of control | dose: 200.0 mg/kg/injection, schedule: Q01DX009 (ip), vehicle: saline 90 % of control and 96 % of control

COc1cc(OC)c(NC(=O)Nc2ccc(NC(C)=O)cc2)cc1Cl
inactive: [3] 103 % of control | [4] 103 % of control | dose: 50.0 mg/kg/injection, schedule: Q01DX009 (ip), vehicle: saline with Tween-80 103 % of control

O=C1CCc2c(Br)cccc21
inactive: [5] 106 % of control | [6] 114 % of control | [7] 101 % of control | [8] 100 % of control | [9] 110 % of control | [10] 101 % of control

COc1ccc(C(=Cc2cc(OC(C)=O)c3ccccc3c2OC(C)=O)c2ccc(OC)cc2)cc1
inactive: [6] 97 % of control | [8] 89 % of control | [10] 91 % of control

CCc1ccc(-n2cnc3c(=O)[nH]c(N)nc32)cc1
inactive: [11] 87 % of control | [12] 93 % of control

NNc1ccccc1-c1nc2ccccc2[nH]1
inactive: dose: 75.0 mg/kg/injection, schedule: Q01DX001 (ip), vehicle: saline 96 % of control | dose: 150.0 mg/kg/injection, schedule: Q01DX001 (ip), vehicle: saline 96 % of control | dose: 300.0 mg/kg/injection, schedule: Q01DX001 (ip), vehicle: saline 108 % of control

CCCC(C(CC)CN(C)C)N(C)C (stereo not given)
inactive: dose: 3.12 mg/kg/injection, schedule: Q04DX002 (ip), vehicle: saline with Tween-80 113 % of control | dose: 6.25 mg/kg/injection, schedule: Q04DX002 (ip), vehicle: saline with Tween-80 106 % of control | dose: 12.5 mg/kg/injection, schedule: Q04DX002 (ip), vehicle: saline with Tween-80 107 % of control | dose: 25.0 mg/kg/injection, schedule: Q01DX001 (ip), vehicle: saline with Tween-80 120 % of control | dose: 25.0 mg/kg/injection, schedule: Q04DX002 (ip), vehicle: saline with Tween-80 103 % of control | dose: 50.0 mg/kg/injection, schedule: Q01DX001 (ip), vehicle: saline with Tween-80 100 % of control | [11] 100 % of control

O=c1[nH]cnc2c1ccn2C1OC(CO)C(O)C1O (stereo not given)
inactive: [13] 111 % of control | dose: 6.25 mg/kg/injection, schedule: Q04DX003 (ip), vehicle: saline sonified 106 % of control | [1] 90 % of control | dose: 12.5 mg/kg/injection, schedule: Q04DX003 (ip), vehicle: saline sonified 109 % of control | dose: 16.7 mg/kg/injection, schedule: Q04DX003 (ip), vehicle: saline sonified 121 % of control | dose: 25.0 mg/kg/injection, schedule: Q04DX003 (ip), vehicle: saline sonified 113 % of control | dose: 37.5 mg/kg/injection, schedule: Q04DX003 (ip), vehicle: saline sonified 119 % of control

[Br][Pt].[NH-]CC[N-]CC[NH-]
inactive: dose: 12.5 mg/kg/injection, schedule: Q01DX009 (ip), vehicle: water 98 % of control | dose: 25.0 mg/kg/injection, schedule: Q01DX009 (ip), vehicle: water 93 % of control

CC1(CC(=O)O)NC(=O)NC1=O (stereo not given)
inactive: [14] 102 % of control | [15] 96 % of control | [16] 97 % of control | [17] 101 % of control | dose: 400.0 mg/kg/injection, schedule: Q01DX001 (ip), vehicle: saline 100 % of control | [18] 96 % of control

CC12CCCC1=C1CCC3CC(OC(=O)c4ccccc4)CCC3(C)C1CC2 (stereo not given)
inactive: [6] 100 % of control | [8] 96 % of control | [10] 100 % of control

c1ccc2c(c1)ccc1c(C3CO3)cccc12 (stereo not given)
inactive: dose: 100.0 mg/kg/injection, schedule: Q01DX005 (ip), vehicle: saline with Tween-80 103 % of control | [5] 93 % of control | dose: 200.0 mg/kg/injection, schedule: Q01DX005 (ip), vehicle: saline with Tween-80 106 % of control | [7] 101 % of control | dose: 400.0 mg/kg/injection, schedule: Q01DX005 (ip), vehicle: saline with Tween-80 95 % of control | [9] 101 % of control

COc1ccc(C(O)(c2ccc(OC)cc2)C(c2ccccc2)c2ccccc2)cc1
inactive: [5] 100 % of control | [7] 96 % of control | [9] 97 % of control

ClCCN(CCCl)CCCN1c2ccccc2Sc2ccc(Cl)cc21
inactive: dose: 18.0 mg/kg/injection, schedule: Q01DX001 (ip), vehicle: saline with Tween-80 103 % of control | dose: 28.0 mg/kg/injection, schedule: Q01DX001 (ip), vehicle: saline with Tween-80 100 % of control | dose: 40.0 mg/kg/injection, schedule: Q01DX001 (ip), vehicle: saline with Tween-80 97 % of control | dose: 60.0 mg/kg/injection, schedule: Q01DX001 (ip), vehicle: saline with Tween-80 103 % of control | dose: 90.0 mg/kg/injection, schedule: Q01DX001 (ip), vehicle: saline with Tween-80 107 % of control | dose: 135.0 mg/kg/injection, schedule: Q01DX001 (ip), vehicle: saline with Tween-80 112 % of control

O=C1C(=O)c2ccc(Br)cc2C(O)=C1/C=C/c1ccccc1
inactive: dose: 50.0 mg/kg/injection, schedule: Q01DX001 (ip), vehicle: saline 104 % of control | [14] 101 % of control | [16] 103 % of control

COc1ccc(/C=N/NC(=O)CNC(=O)Nc2cccc(Cl)c2)cc1
inactive: [3] 91 % of control | [4] 91 % of control

CN(C)CCCC1c2ccccc2Oc2ccc(C(F)(F)F)cc21 (stereo not given)
inactive: dose: 1.56 mg/kg/injection, schedule: Q01DX009 (ip), vehicle: saline 96 % of control | dose: 3.12 mg/kg/injection, schedule: Q01DX009 (ip), vehicle: saline 100 % of control | [13] 94 % of control | [1] 100 % of control | [2] 103 % of control

Cn1ccccc1=S
inactive: [11] 108 % of control | dose: 200.0 mg/kg/injection, schedule: Q01DX001 (ip), vehicle: saline with Tween-80 107 % of control | [12] 103 % of control

Cc1ccc(Nc2ncnc3c2ncn3C2OC(CO)C(O)C2O)cc1 (stereo not given)
inactive: dose: 12.5 mg/kg/injection, schedule: Q01DX005 (ip), vehicle: distilled water + Tween-80 94 % of control | dose: 25.0 mg/kg/injection, schedule: Q01DX005 (ip), vehicle: distilled water + Tween-80 94 % of control | dose: 50.0 mg/kg/injection, schedule: Q01DX005 (ip), vehicle: distilled water + Tween-80 94 % of control | dose: 100.0 mg/kg/injection, schedule: Q01DX005 (ip), vehicle: distilled water + Tween-80 96 % of control | dose: 200.0 mg/kg/injection, schedule: Q01DX005 (ip), vehicle: distilled water + Tween-80 94 % of control

CCOC(=O)C1OC12c1cccc3cccc(c13)C21OC1C(=O)OCC (stereo not given)
inactive: [6] 97 % of control | [8] 95 % of control | [10] 91 % of control

Cc1ncc2cnccn12
inactive: dose: 50.0 mg/kg/injection, schedule: Q01DX009 (ip), vehicle: saline sonified 101 % of control | dose: 100.0 mg/kg/injection, schedule: Q01DX009 (ip), vehicle: saline sonified 104 % of control | dose: 100.0 mg/kg/injection, schedule: Q04DX003 (ip), vehicle: saline 97 % of control | dose: 200.0 mg/kg/injection, schedule: Q04DX003 (ip), vehicle: saline 101 % of control

Cn1c(=O)[nH]c(=O)c2cc(Cl)ccc21
inactive: [15] 101 % of control | [17] 106 % of control | [18] 121 % of control

C=CCN(CC=C)N=Nc1ccc(C(N)=O)cc1
inactive: dose: 19.75 mg/kg/injection, schedule: Q01DX009 (ip), vehicle: Klucel (hydroxypropylcellulose) (HPC) 102 % of control | dose: 39.5 mg/kg/injection, schedule: Q01DX009 (ip), vehicle: Klucel (hydroxypropylcellulose) (HPC) 102 % of control | dose: 79.0 mg/kg/injection, schedule: Q01DX009 (ip), vehicle: Klucel (hydroxypropylcellulose) (HPC) 114 % of control and 110 % of control | dose: 118.0 mg/kg/injection, schedule: Q01DX009 (ip), vehicle: Klucel (hydroxypropylcellulose) (HPC) 100 % of control | dose: 177.0 mg/kg/injection, schedule: Q01DX009 (ip), vehicle: Klucel (hydroxypropylcellulose) (HPC) 112 % of control
